Reference: patent US12528784B2, “Alkynyl-(heteroaryl)-carboxamide HCN1 inhibitors” (Hoffmann-La Roche Inc., priority 2019, dated 2026)
pIC50: −log10 of the molar value.

Assays:
Assay type in all cases: cell-based
HCN1 = target: T1, HCN1 (Homo sapiens, UniProt O60741); experiment: HCN1 automated patch clamp current inhibition assay (Ionworks Barracuda); settings: HEK-293 cells stably expressing HCN1; current inhibition during a hyperpolarizing pulse of -100 mV
T1 construct: expressed in transfected cells
T1 sequence (O60741 1-890): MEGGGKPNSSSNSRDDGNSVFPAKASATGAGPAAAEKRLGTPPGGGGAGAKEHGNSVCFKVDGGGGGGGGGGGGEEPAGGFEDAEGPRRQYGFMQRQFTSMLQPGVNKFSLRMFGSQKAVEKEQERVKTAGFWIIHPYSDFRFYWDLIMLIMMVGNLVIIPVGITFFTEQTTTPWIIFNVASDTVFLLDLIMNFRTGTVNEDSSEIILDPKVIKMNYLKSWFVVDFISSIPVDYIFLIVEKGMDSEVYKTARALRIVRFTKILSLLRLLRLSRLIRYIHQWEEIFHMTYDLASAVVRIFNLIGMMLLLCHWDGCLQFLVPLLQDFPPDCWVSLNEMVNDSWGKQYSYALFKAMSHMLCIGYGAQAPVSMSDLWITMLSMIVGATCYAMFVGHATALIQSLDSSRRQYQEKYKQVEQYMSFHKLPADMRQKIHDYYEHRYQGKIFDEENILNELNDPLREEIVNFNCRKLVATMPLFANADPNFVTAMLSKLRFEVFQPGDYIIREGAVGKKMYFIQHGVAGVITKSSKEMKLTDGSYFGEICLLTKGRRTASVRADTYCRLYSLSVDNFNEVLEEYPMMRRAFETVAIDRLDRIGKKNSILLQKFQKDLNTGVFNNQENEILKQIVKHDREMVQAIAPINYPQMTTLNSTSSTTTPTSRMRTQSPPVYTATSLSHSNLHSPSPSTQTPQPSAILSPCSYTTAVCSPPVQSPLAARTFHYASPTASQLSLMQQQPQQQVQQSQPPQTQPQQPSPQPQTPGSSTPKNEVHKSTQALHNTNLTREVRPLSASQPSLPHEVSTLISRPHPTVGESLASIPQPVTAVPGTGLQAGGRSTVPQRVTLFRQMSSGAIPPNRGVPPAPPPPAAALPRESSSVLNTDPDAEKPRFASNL
Protocol: (§1) In vitro, high-throughput cellular electrophysiology was employed to detect voltage- and use-dependence of compounds in single concentration screening and IC50 determination for library and medicinal chemistry profiling compounds in 384 well plates.
(§2) Cell cultures were maintained in DMEM/F12 cell growth media containing FBS and appropriate antibiotics at 37° C., 5% CO2 for a maximum of 20 passages. At a time point of 40-72 hours prior to assay, the expression of HCN protein in the cells is induced by addition of tetracyclin. Cells may be incubated at 27° C. for 2-24 hours of induction. […] Cells were harvested at 80% confluency and resuspended in extracellular buffer and added to wells. A freshly prepared Escin solution was added to intracellular buffer and applied to establish whole cell recording via perforated patch clampling by APC.
(§3) Currents through activated channels were measured directly by APC by employing hyperpolarizing voltage steps. The activation window was increased and stabilized by the addition of cell permeable Br-cAMP. Baselines were established for both use- and voltage-dependence protocols using a −30 mV holding potential and multiple test pulses at −100 mV or by 20 mV steps from −120 to 0 mV, respectively. Test compounds were added after baseline recordings followed by a 10 min incubation, voltage-dependency protocol recording, and use-dependency recording. Data was corrected for baseline and rundown (well based) and normalized for % inhibition (plate based). Five previously reported HCN inhibitors of varying potencies and selectivities and zatebradine were used for run to run and plate to plate quality controls. […] Percent inhibition was analysed at −80, −100, −120 mV of the voltage-dependency protocol and at pulse 0 and 50 of the use-dependency protocols. Selectivity was assessed against HCN2, HCN3, and HCN4 overexpressing cell lines using similar methods. As HCN4 has a slower activation than the other HCN channels, activation was extended to achieve steady state activation.

HCN2 = target: T2, HCN2 (Homo sapiens, UniProt Q9UL51); experiment: HCN2 automated patch clamp current inhibition assay (Ionworks Barracuda); settings: HEK-293 cells stably expressing HCN2; current inhibition during a hyperpolarizing pulse of -100 mV
T2 construct: expressed in transfected cells
T2 sequence (Q9UL51 1-889): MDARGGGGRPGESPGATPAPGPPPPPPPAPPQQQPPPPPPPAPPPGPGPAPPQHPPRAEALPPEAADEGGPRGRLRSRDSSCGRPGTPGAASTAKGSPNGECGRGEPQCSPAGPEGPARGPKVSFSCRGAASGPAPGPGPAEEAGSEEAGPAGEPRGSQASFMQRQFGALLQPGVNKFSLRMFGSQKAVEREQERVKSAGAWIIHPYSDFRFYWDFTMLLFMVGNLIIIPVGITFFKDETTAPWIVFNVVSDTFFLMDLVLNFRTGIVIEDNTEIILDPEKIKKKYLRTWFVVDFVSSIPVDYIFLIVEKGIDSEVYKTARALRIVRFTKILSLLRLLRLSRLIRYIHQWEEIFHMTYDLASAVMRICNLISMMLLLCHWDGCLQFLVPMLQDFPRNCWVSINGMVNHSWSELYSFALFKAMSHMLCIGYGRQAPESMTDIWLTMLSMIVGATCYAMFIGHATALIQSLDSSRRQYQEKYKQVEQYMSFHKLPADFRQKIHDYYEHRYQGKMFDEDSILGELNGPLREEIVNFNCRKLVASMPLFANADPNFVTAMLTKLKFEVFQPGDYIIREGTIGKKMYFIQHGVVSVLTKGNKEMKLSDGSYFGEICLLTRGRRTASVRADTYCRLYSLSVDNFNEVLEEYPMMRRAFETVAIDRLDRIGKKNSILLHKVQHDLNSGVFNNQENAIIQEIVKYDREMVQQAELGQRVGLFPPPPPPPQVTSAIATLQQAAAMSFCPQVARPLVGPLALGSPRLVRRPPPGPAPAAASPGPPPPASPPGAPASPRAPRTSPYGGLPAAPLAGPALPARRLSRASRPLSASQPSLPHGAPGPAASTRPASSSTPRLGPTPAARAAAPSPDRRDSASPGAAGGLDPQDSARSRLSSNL
Protocol: as §1, §2, §3

HCN4 = target: T3, HCN4 (Homo sapiens, UniProt Q9Y3Q4); experiment: HCN4 automated patch clamp current inhibition assay (Ionworks Barracuda); settings: HEK-293 cells stably expressing HCN4; current inhibition during a hyperpolarizing pulse of -100 mV
T3 construct: expressed in transfected cells
T3 sequence (Q9Y3Q4 1-1203): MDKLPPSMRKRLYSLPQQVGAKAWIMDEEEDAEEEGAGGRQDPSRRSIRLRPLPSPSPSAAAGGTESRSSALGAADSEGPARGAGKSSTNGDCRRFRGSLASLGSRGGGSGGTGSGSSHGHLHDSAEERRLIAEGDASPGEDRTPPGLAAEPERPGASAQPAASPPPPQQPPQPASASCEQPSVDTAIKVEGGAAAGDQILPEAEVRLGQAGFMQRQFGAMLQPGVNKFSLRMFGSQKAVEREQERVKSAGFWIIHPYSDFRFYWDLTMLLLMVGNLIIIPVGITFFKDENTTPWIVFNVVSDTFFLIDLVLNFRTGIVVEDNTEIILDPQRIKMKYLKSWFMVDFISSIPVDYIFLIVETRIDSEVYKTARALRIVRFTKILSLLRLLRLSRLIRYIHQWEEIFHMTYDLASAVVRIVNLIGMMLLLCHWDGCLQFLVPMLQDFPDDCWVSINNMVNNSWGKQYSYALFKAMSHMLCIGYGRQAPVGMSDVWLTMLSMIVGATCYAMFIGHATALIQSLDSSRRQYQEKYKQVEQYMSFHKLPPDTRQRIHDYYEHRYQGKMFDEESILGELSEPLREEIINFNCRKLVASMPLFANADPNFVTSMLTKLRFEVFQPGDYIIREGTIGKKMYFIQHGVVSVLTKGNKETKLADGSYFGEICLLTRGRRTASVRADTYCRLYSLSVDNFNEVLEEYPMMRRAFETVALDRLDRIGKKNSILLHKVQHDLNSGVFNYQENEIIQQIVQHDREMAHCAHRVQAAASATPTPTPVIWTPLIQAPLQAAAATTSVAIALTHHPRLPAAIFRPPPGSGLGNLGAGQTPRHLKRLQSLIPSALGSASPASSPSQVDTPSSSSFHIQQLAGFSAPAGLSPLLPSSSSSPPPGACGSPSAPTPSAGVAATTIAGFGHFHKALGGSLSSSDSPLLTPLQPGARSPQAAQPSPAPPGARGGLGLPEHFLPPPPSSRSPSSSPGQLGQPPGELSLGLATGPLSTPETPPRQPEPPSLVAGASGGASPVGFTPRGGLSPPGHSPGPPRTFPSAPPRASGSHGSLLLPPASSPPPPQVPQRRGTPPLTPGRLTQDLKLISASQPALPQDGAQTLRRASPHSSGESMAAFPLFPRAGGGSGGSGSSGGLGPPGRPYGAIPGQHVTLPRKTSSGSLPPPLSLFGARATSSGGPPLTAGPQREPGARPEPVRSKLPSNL
Protocol: as §1, §2, §3

pIC50 (HCN1) | pIC50 (HCN2) | pIC50 (HCN4) | Compound
6.53 | < 4.40 | < 4.40 | Cc1ccc(-n2c(C(N)=O)nc(C#Cc3cc(Cl)ncc3F)c2C)cn1 [Example 7, 4-((2-Chloro-5-fluoropyridin-4-yl)ethynyl)-5-methyl-1-(6-methylpyridin-3-yl)-1H-imidazole-2-carboxamide]
6.08 | < 4.40 | < 4.40 | Cc1ccc(-n2c(C(N)=O)nc(C#Cc3ccnc(C(F)(F)F)c3)c2C)cn1 [Example 11, 5-Methyl-1-(6-methylpyridin-3-yl)-4-((2-(trifluoromethyl)pyridin-4-yl)ethynyl)-1H-imidazole-2-carboxamide]
5.50 | < 4.40 | < 4.40 | Cc1c(C#Cc2ccnc(Cl)c2)nc(C(N)=O)n1-c1cccc(Cl)c1 [Example 40, 1-(3-Chlorophenyl)-4-((2-chloropyridin-4-yl)ethynyl)-5-methyl-1H-imidazole-2-carboxamide]
6.29 | < 4.40 | < 4.40 | Cc1ccc(-n2c(C(N)=O)nc(C#Cc3ccc(Cl)cc3)c2C)cn1 [Example 9, 4-[2-(4-Chlorophenyl)ethynyl]-5-methyl-1-(6-methyl-3-pyridyl)imidazole-2-carboxamide]
6.82 | < 4.40 | < 4.40 | Cc1ccc(-n2c(C(N)=O)nc(C#Cc3ccnc(Cl)c3C)c2C)nn1 [Example 24, 4-[2-(2-Chloro-3-methyl-4-pyridyl)ethynyl]-5-methyl-1-(6-methylpyridazin-3-yl)imidazole-2-carboxamide]
6.00 | < 4.40 | < 4.40 | Cc1ccc(-n2c(C(N)=O)nc(C#Cc3ccnc(F)c3)c2C)cn1 [Example 12, 4-[2-(2-Fluoro-4-pyridyl)ethynyl]-5-methyl-1-(6-methyl-3-pyridyl)imidazole-2-carboxamide]
5.52 | < 4.40 | < 4.40 | Cc1ccc(-n2c(C(N)=O)nc(C#Cc3cncc(Cl)c3)c2C)cn1 [Example 17, 4-[2-(5-Chloro-3-pyridyl)ethynyl]-5-methyl-1-(6-methyl-3-pyridyl)imidazole-2-carboxamide]
5.62 | < 4.40 | < 4.40 | Cc1ccc(-n2c(C(N)=O)nc(C#Cc3ccncc3F)c2C)cn1 [Example 16, 4-((3-Fluoropyridin-4-yl)ethynyl)-5-methyl-1-(6-methylpyridin-3-yl)-1H-imidazole-2-carboxamide]
5.62 | < 4.40 | < 4.40 | Cc1ccc(-n2c(C(N)=O)nc(C#Cc3ccnc(Cl)n3)c2C)cn1 [Example 15, 4-((2-Chloropyrimidin-4-yl)ethynyl)-5-methyl-1-(6-methylpyridin-3-yl)-1H-imidazole-2-carboxamide]
7.06 |  | < 4.40 | Cc1c(Cl)cccc1C#Cc1nc(C(N)=O)n(-c2cccnc2)c1C [Example 30, 4-[2-(3-Chloro-2-methyl-phenyl)ethynyl]-5-methyl-1-(3-pyridyl)imidazole-2-carboxamide]
5.19 |  | < 4.40 | Cc1ccc(-n2c(C(N)=O)nc(C#Cc3cc(Cl)ncn3)c2C)cn1 [Example 19, 4-((6-Chloropyrimidin-4-yl)ethynyl)-5-methyl-1-(6-methylpyridin-3-yl)-1H-imidazole-2-carboxamide]
5.07 | < 4.40 | < 4.40 | Cc1ccc(-n2c(C(N)=O)nc(C#Cc3cccnc3)c2C)cn1 [Example 20, 5-Methyl-1-(6-methyl-3-pyridyl)-4-[2-(3-pyridyl)ethynyl]imidazole-2-carboxamide]
5.22 | < 4.40 | < 4.40 | Cc1ccc(-n2c(C(N)=O)nc(C#Cc3ccnc(C)c3)c2C)cn1 [Example 22, 5-Methyl-1-(6-methylpyridin-3-yl)-4-((2-methylpyridin-4-yl)ethynyl)-1H-imidazole-2-carboxamide]
